From ChEMBL document CHEMBL5375988, “AcGlcAs: A Novel P53-Targeting Arsenical with Potent Cellular Uptake and Cancer Cell Selectivity” (J Med Chem, 2023)
The source made the active and inactive calls. The calls are words filed in the database; no cut-off is given here.

Tests used:
U-937 [1] = assay: Upregulation of PUMA protein expression in human U-937 cells overexpressing p53-V272M mutant at 0.1 to 0.5 uM pretreated for 1 hr followed by culturing in fresh medium for 16 hrs by Western blot analysis; assay type: functional, cell-based; details: dose 0.1-0.5 µM
NB-4 [2] = assay: Induction of apoptosis in human NB4 cells assessed as viable cells at 9 uM preincubated for 1 hrs followed by replacement with fresh culture medium and measured after 24 hrs by Annexin V-FITC/7AAD staining based flow cytometry assay (reference value: 94%); assay type: functional; details: read-out: Activity
[3] = Toxicity in M-NSG mouse xenografted with human U-937 cells harboring p53 V272M mutant assessed as reduction in body weight at 25 mg/kg, ip administered for 11 days and measured on day 18; assay type: organism-based; details: in vivo, 432 h, time 18 day
[4] = molecular target: T1, PML-RARalpha (Homo sapiens) (UniProt P10276+P29590); assay: Induction of PML/RARalpha (unknown origin) degradation overexpressed in HEK293T cells assessed as residual protein level at 2 to 6 uM incubated for 1 hrs followed by replacement with fresh culture medium and measured after 16 hrs by Western blot analysis; assay type: cell-based; details: dose 2-6 µM
U-937 [5] = assay: Induction of senescence in human U-937 cells overexpressing p53-V272M mutant assessed as upregulation of PML gene expression by RT-qPCR analysis; assay type: functional, cell-based
NB-4 [6] = assay: Induction of apoptosis in human NB4 cells assessed as necrotic cells at 9 uM preincubated for 1 hrs followed by replacement with fresh culture medium and measured after 24 hrs by Annexin V-FITC/7AAD staining based flow cytometry assay (reference value: 0.16%); assay type: functional
[7] = system: Cellular tumor antigen p53 (Homo sapiens), P04637 [V272M]; assay: Restoration of p53-V272M mutant transcriptional activity on PUMA promoter in human NCI-H1299 cells at 10 uM pretreated with 20 to 40 uM N-ethylmaleimide for 30 mins followed by compound addition for 10 mins and further incubation in fresh medium for 24 hrs by firefly/renilla based luciferase reporter assay; assay type: cell-based
NB-4 [8] = assay: Induction of apoptosis in human NB4 cells assessed as necrotic cells at 27 uM preincubated for 1 hrs followed by replacement with fresh culture medium and measured after 24 hrs by Annexin V-FITC/7AAD staining based flow cytometry assay (reference value: 0.18%); assay type: functional
HL-60 = assay: Upregulation of CDKN1A mRNA expression in human HL-60 cells overexpressing p53-V272M mutant at 2 uM pretreated for 1 hr followed by culturing in fresh medium for 8 hrs by RT-qPCR analysis; assay type: functional, cell-based
[9] = molecular target: T1, PML-RARalpha (Homo sapiens); assay: Induction of PML/RARalpha degradation in human NB4 cells assessed as residual protein level at 1 uM incubated for 1 hrs followed by replacement with fresh culture medium and measured after 16 hrs by Western blot analysis (reference value: 1); assay type: cell-based
U-937 [10] = assay: Induction of extrinsic apoptosis in human U-937 cells overexpressing p53-V272M mutant assessed as upregulation of FAS gene expression by RT-qPCR analysis; assay type: functional, cell-based
U-937 [11] = assay: Upregulation of p21 mRNA expression in human U-937 cells overexpressing p53-V272M mutant pretreated for 1 hr followed by culturing in fresh medium for 4 hrs by RT-qPCR analysis; assay type: functional, cell-based
[12] = Plasma stability in dog assessed as half life at […] measured upto 120 mins by LC-MS analysis; assay type: ADME, cell-free, Canis lupus familiaris
[13] = Drug accumulation in ICR mouse liver at 10 mg/kg, iv measured upto 24 hrs by ICP-MS analysis; assay type: ADME, organism-based; details: in vivo
[14] = Plasma stability in mouse assessed as half life at […] measured upto 120 mins by LC-MS analysis; assay type: ADME, cell-free
U-937 [15] = assay: Induction of cell cycle arrest in human U-937 cells overexpressing p53-V272M mutant assessed as upregulation of p21 encoding CDKN1A gene expression by RT-qPCR analysis; assay type: functional, cell-based
[16] = molecular target: T1, PML-RARalpha (Homo sapiens); assay: Induction of PML/RARalpha degradation in human NB4 cells assessed as downregulation of P2RY2 mRNA expression incubated for 1 hrs followed by replacement with fresh culture medium for 6 hrs by RT-qPCR analysis; assay type: cell-based; details: dose 0.3-3 µM
[17] = system: Cellular tumor antigen p53 (Homo sapiens), P04637 [V272M]; assay: Thermostabilization of recombinant p53 V272M mutant (unknown origin) […] assessed as increase in melting temperature at 1:15 ratio in HEPES at pH 7.5 by DSF analysis
[18] = Drug uptake in human U-937 cells assessed as fold increase in arsenic accumulation at 10 uM incubated for 10 mins by ICP-MS analysis; assay type: ADME, cell-based; details: u-937, 10 min
[19] = Drug uptake in human HepG2 cells at 1 to 10 uM incubated for 5 mins at 4 degreeC by ICP-MS analysis; assay type: ADME, cell-based; details: hepg2, 5 min, dose 1-10 µM
[20] = molecular target: T1, PML-RARalpha (Homo sapiens); assay: Induction of PML/RARalpha degradation in human NB4 cells assessed as residual protein level at 3 uM incubated for 1 hrs followed by replacement with fresh culture medium and measured after 16 hrs by Western blot analysis (reference value: 1); assay type: cell-based
[21] = Drug accumulation in ICR mouse lungs at 10 mg/kg, iv measured upto 24 hrs by ICP-MS analysis; assay type: ADME, organism-based, Lung; details: in vivo
[22] = Drug uptake in human HepG2 cells assessed as arsenic localization in nucleus at 10 uM incubated for 1 hr by ICP-MS analysis; assay type: ADME, cell-based; details: hepg2, 1 h
[23] = Chemical stability of compound in PBS at 10 uM incubated for 1 hr by LC-MS analysis; assay type: physicochemical; details: buffer
NB-4 [24] = assay: Inhibition of colony formation in human NB4 cells at 1 to 9 uM pretreated for 1 hr followed by washout and cultured in soft agar containing fresh medium for 18 days by crystal violet staining based assay; assay type: functional, cell-based; details: dose 1-9 µM
[25] = molecular target: T1, PML-RARalpha (Homo sapiens); assay: Induction of PML/RARalpha degradation in human NB4 cells assessed as residual protein level at 0.3 uM incubated for 1 hrs followed by replacement with fresh culture medium and measured after 16 hrs by Western blot analysis (reference value: 1); assay type: cell-based
[26] = Plasma stability in monkey assessed as half life at […] measured upto 120 mins by LC-MS analysis; assay type: ADME, cell-free, Macaca mulatta; details: rhesus monkey
[27] = Drug uptake in human HepG2 cells assessed as arsenic localization in cytoplasm at 10 uM incubated for 1 hr by ICP-MS analysis; assay type: ADME, cell-based; details: hepg2, 1 h
NCI-H1299 = assay: Upregulation of MDM2 protein expression in human NCI-H1299 cells overexpressing p53-V272M mutant pretreated for 1 hr followed by culturing in fresh medium for 16 hrs by Western blot analysis; assay type: functional, cell-based
[28] = Plasma stability in human assessed as half life at […] measured upto 120 mins by LC-MS analysis; assay type: ADME, cell-free
[29] = Clearance in mouse assessed as hepatic blood flow; assay type: ADME, tissue-based
U-937 [30] = assay: Induction of intrinsic apoptosis in human U-937 cells overexpressing p53-V272M mutant assessed as upregulation of PUMA gene expression by RT-qPCR analysis; assay type: functional, cell-based
[31] = system: Cellular tumor antigen p53 (Homo sapiens), P04637 [V272M]; assay: Restoration of p53-V272M mutant transcriptional activity on PUMA promoter in human NCI-H1299 cells harboring siRNA-mediated CKAP4 knockdown incubated for 24 hrs by firefly/renilla based luciferase reporter assay; assay type: cell-based
[32] = Toxicity in M-NSG mouse xenografted with luciferase transduced human U-937 cells harboring p53 V272M mutant assessed as reduction in body weight at 10 mg/kg, iv measured for 8 days post administration; assay type: organism-based; details: in vivo, 192 h, time 8 day

T1 sequence (P10276 whole entry, looked up): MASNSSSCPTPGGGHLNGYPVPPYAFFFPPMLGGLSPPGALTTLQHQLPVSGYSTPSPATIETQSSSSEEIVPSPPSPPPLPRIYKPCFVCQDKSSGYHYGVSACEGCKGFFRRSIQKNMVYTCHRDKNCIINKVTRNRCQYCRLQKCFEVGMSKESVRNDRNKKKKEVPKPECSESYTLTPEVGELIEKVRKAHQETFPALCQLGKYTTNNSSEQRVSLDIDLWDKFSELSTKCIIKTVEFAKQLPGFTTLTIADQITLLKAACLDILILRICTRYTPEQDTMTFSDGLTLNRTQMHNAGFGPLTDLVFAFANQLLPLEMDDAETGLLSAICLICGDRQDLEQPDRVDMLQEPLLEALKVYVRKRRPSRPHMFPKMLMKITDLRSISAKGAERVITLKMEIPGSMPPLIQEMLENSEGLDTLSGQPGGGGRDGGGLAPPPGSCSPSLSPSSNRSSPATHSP
T1 sequence (P29590 whole entry, looked up): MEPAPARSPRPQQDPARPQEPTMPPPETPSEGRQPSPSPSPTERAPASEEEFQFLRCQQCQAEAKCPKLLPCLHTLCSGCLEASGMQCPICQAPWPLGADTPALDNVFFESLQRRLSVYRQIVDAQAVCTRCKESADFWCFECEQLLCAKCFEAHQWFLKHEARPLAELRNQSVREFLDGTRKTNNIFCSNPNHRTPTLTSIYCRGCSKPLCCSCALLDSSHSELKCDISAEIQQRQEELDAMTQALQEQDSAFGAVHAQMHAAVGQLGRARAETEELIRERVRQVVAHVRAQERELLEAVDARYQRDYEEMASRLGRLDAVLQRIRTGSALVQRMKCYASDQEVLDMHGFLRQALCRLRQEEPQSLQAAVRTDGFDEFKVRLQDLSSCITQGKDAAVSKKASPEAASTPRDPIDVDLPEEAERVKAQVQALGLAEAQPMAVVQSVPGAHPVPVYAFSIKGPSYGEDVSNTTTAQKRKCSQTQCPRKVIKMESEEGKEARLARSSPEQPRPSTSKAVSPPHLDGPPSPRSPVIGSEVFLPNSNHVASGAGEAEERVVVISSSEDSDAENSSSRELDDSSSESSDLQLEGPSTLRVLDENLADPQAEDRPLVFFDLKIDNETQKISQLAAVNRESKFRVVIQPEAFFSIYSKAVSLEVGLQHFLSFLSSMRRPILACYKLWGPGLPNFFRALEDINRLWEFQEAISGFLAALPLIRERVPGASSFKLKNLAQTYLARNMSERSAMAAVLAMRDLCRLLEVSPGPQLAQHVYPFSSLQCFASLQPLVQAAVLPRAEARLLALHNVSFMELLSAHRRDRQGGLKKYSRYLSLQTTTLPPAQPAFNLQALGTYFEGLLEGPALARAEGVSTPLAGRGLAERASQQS

## CC(=O)OC[C@H]1O[C@@H](S[As]2SCCS2)[C@H](OC(C)=O)[C@@H](OC(C)=O)[C@@H]1OC(C)=O
U-937 [1]
  Activity: Active
NB-4 [2]
  viability at 9 µM: 85.6%
[3]
  Activity: Non-Toxic
[4]
  Activity: Active
U-937 [5]
  Activity: inactive
NB-4 [6]
  Activity: 0.26%
[7]
  Activity: inactive
NB-4 [8]
  Activity: 1.3%
HL-60
  Activity: Active
[9]
  Activity: 0.26
U-937 [10]
  Activity: Active
U-937 [11]
  Activity: Active
[12]
  half-life: 3.06 min
[13]
  Drug uptake: Active
[14]
  half-life: 13.4 min
U-937 [15]
  Activity: Active
[16]
  Activity: Dose-Dependent Effect
[17]
  Activity: inactive
[18]
  fold change (FC): 19
[19]
  Drug uptake: Not Active
[20]
  Activity: 0.18
[21]
  Drug uptake: Active
[22]
  Drug uptake: Active
[23]
  Stability: Stable
NB-4 [24]
  inhibition: Active
[25]
  Activity: 0.42
[26]
  half-life: 11.3 min
[27]
  Drug uptake: Active
NCI-H1299
  Activity: Active
[28]
  half-life: 16.1 min
[29]
  QH: 90 mL/min/kg
U-937 [30]
  Activity: Active
[31]
  Activity: inactive
[32]
  Activity: Non-Toxic
